Laboratory results taken from US4476299A, “Cyclic polyamino containing compounds having therapeutic effect and the preparation thereof” (priority 1981, dated 1984).
“Also recorded” adds a separate entry of the source. Where two headings read alike, the source gives them in different places.

How the values were obtained:
[1] = tested on: P-388 cells; assay: Antineoplastic action against implanted P-388 tumor, CDF1 mice, i.p.-i.p. (T/C %); type: in vivo; settings: for T/C (%): Table 7, P388 (i.p.-i.p.)
Protocol: (§1) In this animal test, the antineoplastic action against the implanted tumor was examined, in lower animals in vivo, in repsect to the compounds according to the present invention, by using CDF1 mice.
(§2) To the peritoneal cavity of each group of mice consisting of six CDF1 mice per group, 10^6 /0.1 ml of P-388 cells or 10^5 /0.1 ml of L-1210 cells were implanted. […] While to the control groups of CDF1 mice, P-388 and L-1210 cells were implanted in the same manner and they were bred without administration of the compounds. […]

[2] = tested on: MM2; assay: Antineoplastic action against MM2 tumor, i.p.-i.p. (T/C %); type: in vivo, mice; settings: Table 7, MM2 (i.p.-i.p.)
Source text: as §1
(§3) As the screening test for confirming antineoplasticity of certain compound, it is known in the art that there are two kinds of tests, one being "in vitro" test wherein carcinoma cells in propagation in a test tube are used, the other being "in vivo" test wherein lower animals implanted with carcinoma cells are used. In Japan. the "in vivo" test is usually carried out by using Ehrlich tumor, L-1210 cells, sarcoma 180 cells, Yoshida sarcoma or ascites-liver tumor as ascitic tumor and immobilized carcinoma mentioned above as fixed carcinoma. Recently, a new method for confirming the antineoplasticity has been developed, in which lymphocytic leukemia cells P-388 are used. It is known that P-388 has more strong sensitivity than L-1210. As fixed carcinoma, there may be mentioned, for example Lewis lung cancer B-16 melanoma, MM2, MOPC 104E, Colon 26, MH 134, C-1498 and the like.
(§4) The new compounds of the present invention were confirmed to be effective to the P-388 cells in the light of the screening test's results hereinbefore described.

[3] = tested on: CD-1 (IRC) mice; assay: Neuropharmacological multidimensional observation (modified Arwin method and Smith method) in mice; type: in vivo, 4-weeks CD-1 (IRC) mice; settings: i.p., 1 to 20 mg/kg, observed every 30 minutes for 180 minutes
Protocol: In this test, other pharmacological effects which may be obtained by these compounds were investigated.
Each compound of the invention was intraperitoneally administered to 4-weeks CD-1 (IRC) mice (Nippon Charles Liver K.K.) in the dose of 1 to 20 mg/kg with using mice groups consisting of three mice per group. […] The observation was carried out according to the modified Arwin method and Smith method, i.e., neuropharmacological multidimentional observation method.
Making a comparison between the symptom observed and the pattern of the pharmacological action due to the known medicines, it has been discovered that each compound of the invention has the following pharmacological effect.

[4] = tested on: L-1210 cells; assay: Antineoplastic action against implanted L-1210 tumor, CDF1 mice, i.p.-i.p. (T/C %); type: in vivo; settings: Table 7, L1210 (i.p.-i.p.)
Protocol: as §1, §2

[5] = tested on: B-16 melanoma; assay: Antineoplastic action against B-16 melanoma, i.p.-i.p. (T/C %); type: in vivo, mice; settings: Table 7, B16 (i.p.-i.p.)
Source text: as §1, §3, §4

[6] = Toxicity test: lethal dose in mice (Litchfield-Wilcoxon); parameters: species or system male 4-weeks CD-1 (ICR) mice; settings: mouse, in vivo, 7 days, read-out: LD50 and 95% Confidence Limit
Protocol: With respect to the compounds of this invention, the lethal dose was determined as follows.
By using male 4-weeks CD-1 (ICR) mice consisting of 5 to 10 mice per group, the desired amount of each compound of this invention was suspended in 0.5% CMC solution and the resultant suspension was administered to each mouse intraperitoneally or intravenously. Observing the life or death as well as the general symptome during 7 days after the administration of the compounds, the value of LD50 for each compounds was estimated from the lethal population observed on the basis of the Litchfield-Wilcoxon method.

[7] = Mus musculus, P388, ip, read-out: T/C %, (Treatment/Control %)

## COc1ccc(CC2C(=O)NC(C)C(=O)N(C)C3Cc4ccc(cc4)Oc4cc(ccc4OC)CC(C(=O)NC(C)C(=O)NC(C)C(=O)N2C)N(C)C3=O)cc1 (stereo not shown) [Methylether of TPC-A, methylether of the compound TPC-A]
[1]; [7]
  response vs control in vivo at 0.01 mg/kg: 130%
  response vs control in vivo at 0.5 mg/kg: 157%
  response vs control in vivo at 2 mg/kg: 164%
  response vs control in vivo at 4 mg/kg: 174%
[1]; 0.01 mg/kg
  T/C (%): 130.1%
[1]; 0.5 mg/kg
  T/C (%): 156.7%
[1]; 1 mg/kg
  T/C (%): 159.9%
[1]; 2 mg/kg
  T/C (%): 164.2%
[1]; 4 mg/kg
  T/C (%): 173.6%
[2]; 0.2 mg/kg
  T/C (%): 103.1%
[2]; 1 mg/kg
  T/C (%): 103.1%
[2]; 2 mg/kg
  T/C (%): 118.4%
[2]; 5 mg/kg
  T/C (%): 90.8%
[3]
  Pharmacological effect estimated: emetic action; also recorded: anorexigenic action
[4]; 0.01 mg/kg
  T/C (%): 105.6%
[4]; 0.5 mg/kg
  T/C (%): 118.6%
[4]; 1 mg/kg
  T/C (%): 120.7%
[4]; 2 mg/kg
  T/C (%): 129.3%
[4]; 5 mg/kg
  T/C (%): 137.3%
[5]; 1 mg/kg
  T/C (%): 135.3%
[5]; 2 mg/kg
  T/C (%): 139.1%
[5]; 4 mg/kg
  T/C (%): 143.0%
[5]; printed "(p. 25 mg/kg)"
  T/C (%): 133.8%
[6]; intravenous
  LD50 at 168 h: 16.5 mg/kg
[6]; ip, intraperitoneal
  LD50 at 168 h: 10 mg/kg
